Data on twelve molecules can be found in US20250215029A1 (Recludix Pharma, Inc., priority 2022, published 2025).

The target in test [1] is T1, pY641-STAT6 in PBMC (Homo sapiens, UniProt P42226).
T1 construct: Cryopreserved Peripheral Blood Mononuclear Cells (PBMC) are from AllCells; host or cells: cryopreserved PBMC
T1 sequence (P42226 1-847): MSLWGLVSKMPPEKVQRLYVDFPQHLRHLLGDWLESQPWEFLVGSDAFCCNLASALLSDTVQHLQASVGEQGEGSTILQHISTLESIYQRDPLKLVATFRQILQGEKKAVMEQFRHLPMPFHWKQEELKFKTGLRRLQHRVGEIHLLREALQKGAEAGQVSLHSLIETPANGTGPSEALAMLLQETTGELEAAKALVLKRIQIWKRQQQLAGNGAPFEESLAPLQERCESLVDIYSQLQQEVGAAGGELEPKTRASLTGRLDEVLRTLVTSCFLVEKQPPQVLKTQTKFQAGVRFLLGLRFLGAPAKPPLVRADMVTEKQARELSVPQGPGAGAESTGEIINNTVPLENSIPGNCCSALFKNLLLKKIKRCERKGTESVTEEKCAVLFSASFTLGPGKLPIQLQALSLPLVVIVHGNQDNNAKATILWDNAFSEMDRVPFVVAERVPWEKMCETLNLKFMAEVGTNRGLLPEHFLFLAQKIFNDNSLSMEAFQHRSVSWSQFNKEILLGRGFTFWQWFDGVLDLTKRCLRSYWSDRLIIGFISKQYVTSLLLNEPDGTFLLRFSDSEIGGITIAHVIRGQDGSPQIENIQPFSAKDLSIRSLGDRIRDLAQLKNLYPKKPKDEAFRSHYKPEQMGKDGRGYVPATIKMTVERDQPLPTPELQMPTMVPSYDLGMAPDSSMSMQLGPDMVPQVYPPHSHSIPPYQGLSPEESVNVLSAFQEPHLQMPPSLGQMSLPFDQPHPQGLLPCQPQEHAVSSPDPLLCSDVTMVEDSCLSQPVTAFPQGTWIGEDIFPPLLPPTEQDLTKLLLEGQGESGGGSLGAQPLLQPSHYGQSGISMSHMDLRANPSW
Kind of test: MSD-pSTAT-PBMC Assay (pSTAT6, IL-4 stimulated). It counts as cell-based. The settings on record: PBMC, compound 3 hrs, then 1 ng/mL IL-4 for 10 min; Table 1114; read-out: pSTAT6. The procedure, abridged: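 MSD electrochemiluminescence read-out: total STAT captured, probed with anti-pY641-STAT6 or anti-pY705-STAT3. Human PBMC, 3 h compound pretreatment, 10 min stimulation (IL-4 1 ng/mL or IL-6 10 ng/mL). Unstimulated signal subtracted, DMSO-normalized, variable-slope IC50.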

Test [2] has as its target T2, pY705-STAT3 in PBMC (Homo sapiens, UniProt P40763).
T2 construct: Cryopreserved Peripheral Blood Mononuclear Cells (PBMC) are from AllCells; host or cells: cryopreserved PBMC
Kind of test: MSD-pSTAT-PBMC Assay (pSTAT3, IL-6 stimulated). It counts as cell-based. The conditions noted are these: PBMC, compound 3 hrs, then 10 ng/mL IL-6 for 10 min; Table 1114; read-out: pSTAT3. An outline of the steps: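 pY705-STAT3 was detected electrochemiluminescently on total-STAT3 capture plates, using lysates of human PBMCs given compound for 3 h and then IL-6 (10 ng/mL, 10 min). Values were background-subtracted against unstimulated wells and set relative to DMSO. IC50 was fitted with variable slope.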

T2 sequence (P40763 whole entry): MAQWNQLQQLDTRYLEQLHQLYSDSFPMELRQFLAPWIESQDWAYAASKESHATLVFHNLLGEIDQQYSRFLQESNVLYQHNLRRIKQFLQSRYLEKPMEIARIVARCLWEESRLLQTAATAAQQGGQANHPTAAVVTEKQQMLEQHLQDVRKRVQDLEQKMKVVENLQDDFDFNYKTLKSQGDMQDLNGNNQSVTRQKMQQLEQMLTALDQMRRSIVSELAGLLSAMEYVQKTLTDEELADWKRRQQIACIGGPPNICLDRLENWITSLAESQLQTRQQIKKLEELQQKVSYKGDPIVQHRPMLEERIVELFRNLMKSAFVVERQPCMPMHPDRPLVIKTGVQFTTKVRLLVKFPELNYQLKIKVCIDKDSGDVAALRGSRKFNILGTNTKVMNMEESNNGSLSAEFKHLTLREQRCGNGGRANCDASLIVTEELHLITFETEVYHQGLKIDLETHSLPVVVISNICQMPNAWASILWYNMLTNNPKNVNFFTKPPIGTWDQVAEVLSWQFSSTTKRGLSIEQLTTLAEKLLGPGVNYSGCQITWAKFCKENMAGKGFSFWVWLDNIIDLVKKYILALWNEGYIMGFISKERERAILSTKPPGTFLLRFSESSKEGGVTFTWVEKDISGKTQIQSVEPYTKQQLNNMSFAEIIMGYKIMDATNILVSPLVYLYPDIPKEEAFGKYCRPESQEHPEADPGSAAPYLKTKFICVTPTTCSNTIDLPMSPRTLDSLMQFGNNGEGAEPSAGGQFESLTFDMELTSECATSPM

As for `CC(C)CC(=O)SCCOP(=O)(OCCSC(=O)CC(C)C)C(F)(F)c1ccc2ccc(C(=O)N[C@H]3CCCC[C@H]4CC[C@@H](C(=O)N5CCC(c6cc[nH]c(=O)c6)C5)N4C3=O)cc2c1` (stereo partly drawn) [Compound 160, S,S′-((((difluoro(7-(((3S,6S,10aS)-5-oxo-3-(3-(2-oxo-1,2-dihydropyridin-4-yl)pyrrolidine-1-carbonyl)decahydropyrrolo [1,2-a]azocin-6-yl)carbamoyl)naphthalen-2-yl)methyl)phosphoryl)bis(oxy))bis(ethane-2,1-diyl)) bis(3-methylbutane thioate)], the IC50 in test [1] and in test [2] was less than 100 nM in each case.
Consider `CC(C)CC(=O)SCCOP(=O)(OCCSC(=O)CC(C)C)C(F)(F)c1ccc2sc(C(=O)N[C@H]3CCCC(C)[C@H]4CC[C@@H](C(=O)N5CC(c6cccnc6)C5)N4C3=O)cc2c1` (stereo partly drawn) [Compound 161, S,S′-((((difluoro(2-(((3S,6S,10aR)-10-methyl-5-oxo-3-(3-(pyridin-3-yl)azetidine-1-carbonyl)decahydropyrrolo [1,2-a]azocin-6-yl)carbamoyl)benzo[b]thiophen-5-yl)methyl)phosphoryl)bis(oxy))bis(ethane-2,1-diyl)) bis(3-methylbutane thioate)], for which the results for the IC50 in test [1] and in test [2] were greater than 3000 nM and less than 100 nM, respectively.
With `CC(C)(C)C(=O)OCOP(=O)(OCOC(=O)C(C)(C)C)C(F)(F)c1ccc2sc(C(=O)NC3CCCCC4CCCC(C(=O)N5CC(C#N)C(c6ccccc6)C5)N4C3=O)cc2c1` [Compound 169, ((((2-(((4S,7S,11aS)-4-((rel- trans)-3-cyano-4-phenylpyrrolidine-1-carbonyl)-6-oxodecahydro-2H-pyrido[1,2-a]azocin-7-yl)carbamoyl)benzo[b]thiophen-5-yl)difluoromethyl)phosphroyl)bis(oxy)) bis(methylene) bis(2,2-dimethylpropaneoate)], the values for the IC50 in test [1] and in test [2] were less than 100 nM and 100 to 1000 nM, respectively.
In the same order, the values of `CC(C)(C)C(=O)OCOP(=O)(OCOC(=O)C(C)(C)C)C(F)(F)c1ccc2sc(C(=O)N[C@H]3CCC[C@H]4CCC[C@@H](C(=O)N5CC(C#N)C(c6ccccc6)C5)N4C3=O)cc2c1` (stereo partly drawn) [Compound 170, ((((2-(((4S,7S,10aS)-4-(rel-(trans)-3-cyano-4-phenylpyrrolidine-1-carbonyl)-6-oxodecahydropyrido [1,2-a]azepin-7-yl)carbamoyl)benzo[b]thiophen-5-yl)difluoromethyl)phosphoryl)bis(oxy)) bis(methylene) bis(2,2-dimethylpropanoate)] are less than 100 nM and 100 to 1000 nM.
Take `CC(C)(C)C(=O)OCOP(=O)(OCOC(=O)C(C)(C)C)C(F)(F)c1ccc2sc(C(=O)N[C@H]3CCCC[C@H]4CCC[C@@H](C(=O)N5CC(n6ccnc6)C5)N4C3=O)cc2c1` [Compound 171, ((((2-(((4S,7S,11aS)-4-(3-(1H-imidazol-1-yl)azetidine-1-carbonyl)-6-oxodecahydro-2H-pyrido[1,2-a]azocin-7-yl)carbamoyl)benzo[b]thiophen-5-yl)difluoromethyl)phosphoryl)bis(oxy)) bis(methylene) bis(2,2-dimethylpropanoate)]: the IC50 in test [1] and in test [2] was greater than 3000 nM throughout.
Consider `CC(C)(C)C(=O)OCOP(=O)(OCOC(=O)C(C)(C)C)C(F)(F)c1ccc2sc(C(=O)N[C@H]3CCCC[C@H]4CCC[C@@H](C(=O)N5CC(C(=O)N6CCOCC6)C5)N4C3=O)cc2c1` [Compound 172, (((difluoro(2-(((4S,7S,11aS)-4-(3-(morpholine-4-carbonyl)azetidine-1-carbonyl)-6-oxodecahydro-2H-pyrido[1,2-a]azocin-7-yl)carbamoyl)benzo[b]thiophen-5-yl)methyl)phosphoryl)bis(oxy))bis(methylene) bis(2,2-dimethylpropanoate)], for which the values for the IC50 in test [1] and in test [2] were 1000 to 3000 nM and less than 100 nM, respectively.
In the same order, the values of `CC(C)(C)C(=O)OCOP(=O)(OCOC(=O)C(C)(C)C)C(F)(F)c1ccc2sc(C(=O)N[C@H]3CCC[C@H]4CCC[C@@H](C(=O)N5CC(n6ccnc6)C5)N4C3=O)cc2c1` [Compound 173, ((((2-(((4S,7S,10aS)-4-(3-(1H-imidazol-1-yl)azetidine-1-carbonyl)-6-oxodecahydropyrido [1,2-a]azepin-7-yl)carbamoyl)benzo[b]thiophen-5-yl)difluoromethyl)phosphoryl)bis(oxy)) bis(methylene) bis(2,2-dimethylpropanoate)] are greater than 3000 nM and 100 to 1000 nM.
As for `CC(C)(C)C(=O)OCOP(=O)(OCOC(=O)C(C)(C)C)C(F)(F)c1ccc2sc(C(=O)N[C@H]3CCCC[C@H]4CC[C@@H](C(=O)N5CC(F)(c6ccccc6)C5)N4C3=O)cc2c1` [Compound 174, (((difluoro(2-(((3S,6S,10aS)-3-(3-fluoro-3-phenylazetidine-1-carbonyl)-5-oxodecahydropyrrolo [1,2-a]azocin-6-yl)carbamoyl)benzo[b]thiophen-5-yl)methyl)phosphoryl)bis(oxy)) bis(methylene) bis(2,2-dimethylpropanoate)], the IC50 is 100 to 1000 nM in test [1] and less than 100 nM in test [2].
The corresponding values for `CC(C)CC(=O)SCCOP(=O)(OCCSC(=O)CC(C)C)C(F)(F)c1ccc2sc(C(=O)N[C@H]3CCC[C@H]4CC[C@@H](C(=O)N5CC(c6cccnc6)C5)N4C3=O)cc2c1` [Compound 177, S,S′-((((difluoro(2-(((3S,6S,9aS)-5-oxo-3-(3-(pyridin-3-yl)azetidine-1-carbonyl)octahydro-1H-pyrrolo[1,2-a]azepin-6-yl)carbamoyl)benzo[b]thiophen-5-yl)methyl)phosphoryl)bis(oxy))bis(ethane-2,1-diyl)) bis(3-methylbutane thioate)] are 1000 to 3000 nM and less than 100 nM.
The corresponding values for `CCCC(=O)SCCOP(=O)(OCCSC(=O)CCC)C(F)(F)c1ccc2sc(C(=O)NC3CCCC4CCC(C(=O)N5CC(c6cccnc6)C5)N4C3=O)cc2c1` [Compound 179, S,S′-((((difluoro(2-(((3S,6S,9aS)-5-oxo-3-(3-(pyridin-3-yl)azetidine-1-carbonyl)octahydro-1H-pyrrolo[1,2-a]azepin-6-yl)carbamoyl)benzo[b]thiophen-5-yl)methyl)phosphoryl)bis(oxy))bis(ethane-2,1-diyl)) dibutanethioate] are 1000 to 3000 nM and less than 100 nM.
Turning to `CC(C)OC(=O)OCOP(=O)(OCOC(=O)OC(C)C)C(F)(F)c1ccc2sc(C(=O)N[C@H]3CCC[C@H]4CC[C@@H](C(=O)N5CC(c6cccnc6)C5)N4C3=O)cc2c1` [Compound 180, (((difluoro(2-(((3S,6S,9aS)-5-oxo-3-(3-(pyridin-3-yl)azetidine-1-carbonyl)octahydro-1H-pyrrolo[1,2-a]azepin-6-yl)carbamoyl)benzo[b]thiophen-5-yl)methyl)phosphoryl)bis(oxy)) bis(methylene) diisopropyl bis(carbonate)], the figures for the IC50 in test [1] and in test [2] were greater than 3000 nM and less than 100 nM, respectively.
In the same order, the values of `CC(C)(C)C(=O)SCCOP(=O)(OCCSC(=O)C(C)(C)C)C(F)(F)c1ccc2sc(C(=O)N[C@H]3CCCC[C@H]4CC[C@@H](C(=O)N5CC(c6cccnc6)C5)N4C3=O)cc2c1` [Compound 181, S,S′-((((difluoro(2-(((3S,6S,10aS)-5-oxo-3-(3-(pyridin-3-yl)azetidine-1-carbonyl)decahydro-pyrrolo[1,2-a]azocin-6-yl)carbamoyl)benzo[b]thiophen-5-yl)methyl)phosphoryl)bis(oxy))bis(ethane-2,1-diyl)) bis(2,2-dimethylpropanethioate)] are greater than 3000 nM and less than 100 nM.
